The test system of one data set is 6-OHDA-lesioned rats. Nature of the data set: Prevention/delay of manifestation of dyskinesia by continuous subcutaneous infusion in 6-OHDA-lesioned rats. It is filed as in vivo, rat. The protocol:
The prepared solution was used after injection into an ALZET® Osmotic Pump MODEL 2ML2 (4.53 μL/hour; DURECT).
6-OHDA-lesioned rats were assigned to each administration group using the number of apomorphine hydrochloride hemihydrate induced rotations and body weight as indicators. […] The osmotic pump implanted subcutaneously was retrieved after the observation and evaluation of behavior on day 15. The behavior was also observed and evaluated on the following day (day 16 of repeated administration of levodopa).
The test results were statistically analyzed by comparison with the solvent administration group using Steel test with the total AIMs score on day 16 of repeated levodopa administration as the parameter. * indicates p<0.05 and ** indicates p<0.01, meaning that there is a significant difference compared to the solvent administration group.

A short description of data set [1]: Plasma tandospirone concentration measured after observation and evaluation of behavior in PD-LID rats. The format is in vivo, rat. Conditions: continuous subcutaneous infusion 60 mg/mL citrate. The protocol:
50 μL of rat plasma sample was fractionated into a polypropylene microtube. 50 μL of methanol (50 μL of standard solution for calibration curve sample) and 200 μL of internal standard solution (Bezafibrate methanol solution: 200 nmol/L, 200 μL of methanol for blank sample) are added and stirred for about 10 seconds with a mixer. This is centrifuged (4° C., 4500 rpm, 10 min), and then the supernatant is subjected to vacuum filtration using a filter (FastRemover MF 0.2 μm). 70 μL of aqueous 10 mmol/L ammonium acetate solution is added to 70 μL of the resulting filtrate and stirred for about 10 seconds with a mixer to prepare a measurement sample.
When evaluating a tape agent, the hair on the abdominal region of rats was shaved before the evaluation date. The tape agent of formulation 2 was applied to the abdominal regions of rats on the evaluation date at 60 cm^2/kg (37 mg/kg). After 4 hours from application, a levodopa containing solution was intraperitoneally administered to observe and evaluate the behavior. Individuals with 50% or more of the tape agent coming off during the test were excluded from analysis.
After 4 hours from application, a levodopa containing solution was intraperitoneally administered to observe and evaluate the behavior. Individuals with 50% or more of the tape agent coming off during the test were excluded from analysis.
After 4 hours, a levodopa containing solution was administered to observe and evaluate the behavior.
After 4 hours, a levodopa containing solution was administered to observe and evaluate the behavior (day 0 of implanting the pump). Repeat administration of once daily levodopa containing solution was continued thereafter. The behavior was also observed and evaluated on day 13 of implanting the pump.

In data set [2] the test system is PD-LID rat model (6-OHDA-lesioned rats). Nature of the data set: Oral administration of tandospirone citrate on dyskinesia-like symptoms in PD-LID rat model. It is filed as in vivo. Particulars: oral 30 or 100 mg/kg.
For data set [3] the test system is unchanged. The data set can be described thus: Long-term dyskinesia improving effect of continuous subcutaneous infusion in PD-LID rat model. The format is in vivo. As to the method: Individuals with a total AIMs score of less than 15 were excluded from the test as not manifesting a dyskinesia-like symptom. The behavior was observed and evaluated before the drug evaluation date. The rats were assigned to each dosing group by using the 3 hour AIMs score, Locomotive behavior score, and rat body weight as indicators, which were used for evaluation of drugs. […] The prepared solution was used after injection into an ALZET® Osmotic Pump MODEL 2ML2 (4.53 μL/hour; DURECT) for releasing a drug solution at a stable rate for 2 weeks. […] After 4 hours, a levodopa containing solution was administered to observe and evaluate the behavior (day 0 of implanting the pump). Repeat administration of once daily levodopa containing solution was continued thereafter. The behavior was also observed and evaluated on day 13 of implanting the pump. […] The results in the drawings are indicated in terms of mean value±standard error of the total AIMs scores in 3 hours. The test results were statistically analyzed using Wilcoxon rank sum test using the total AIMs score as a parameter. ** indicates p<0.01, meaning that there is a significant difference compared to the solvent administration group.

Data set [4] shares this test system. The data set can be described thus: ON-time prolongation action (ON score, ON time without dyskinesia) in PD-LID rat model. It is filed as in vivo. As to the method: To make a PD-LID rat model, a mixture of levodopa methyl ester hydrochloride (6 mg/kg; Sigma-Aldrich) dissolved in saline and benserazide hydrochloride (15 mg/kg; Sigma-Aldrich) (hereinafter, also referred to as “levodopa containing solution”) was intraperitoneally administered once daily to 6-OHDA-lesioned rats. The levodopa containing solution was repeatedly administered for 3 weeks or longer to observe and evaluate the behavior. […] The sum of the scores for Limb AIMs, Axial AIMs, and Orolingual AIMs in 3 hours was used as the total dyskinesia-like symptom (AIMs) score. Individuals with a total AIMs score of less than 10 were excluded from the test as not manifesting a dyskinesia-like symptom. The behavior was observed and evaluated before the drug evaluation date. The rats were assigned to each dosing group by using the 3 hour total dyskinesia-like symptom (AIMs) score, Locomotive behavior score, and rat body weight as indicators, which were used for evaluation of drugs. For an indicator of dyskinesia behavior, the sum of the Limb AIMs, Axial AIMs, and Orolingual AIMs at each evaluation point was used as the AIMs score. For the rotational behavior (ON score), Locomotive behavior at each evaluation point was used as an indicator. The total ON score in 3 hours was used as the total ON score. For ON time without dyskinesia, the period during which the AIMs score is 0 and Locomotive behavior is 1 or greater at each evaluation point was added. Duration of action of levodopa without a dyskinesia symptom (ON time without dyskinesia) refers to the aggregate time with no dyskinesia during the antiparkinsonian action effective time, i.e., “ON-time”, and defined as the time during which the dyskinesia symptom (AIMs) score is 0 and the rotational behavior (Locomotive behavior) score is 1 or greater at each evaluation point after levodopa administration. […] After 5 minutes, a levodopa containing solution was intraperitoneally administered, and the behavior was observed and evaluated. The results in the drawings are indicated in terms of mean value±standard error. The test results were statistically analyzed by comparison with the solvent administration group using the Steel test with the total ON score in 3 hours or ON time without dyskinesia as an indicator. ** indicates p<0.01, meaning that there is a significant difference. For evaluation of a tape agent, the abdominal regions of the rats were shaved prior to the evaluation date. […] After 4 hours from application, a levodopa containing solution was intraperitoneally administered to observe and evaluate the behavior. The results in the drawings are indicated in terms of mean value±standard error. Individuals with 50% or more of the tape agent coming off during the test were excluded from analysis. The test results were statistically analyzed by comparison with the placebo tape administration group using Wilcoxon rank sum test with the total ON score in 3 hours or ON time without dyskinesia as an indicator. * indicates p<0.05 and ** indicates […], meaning that there is a significant difference compared to the solvent oral administration group or the placebo tape administration group.

Data set [5] shares this test system. Nature of the data set: Oral administration of tandospirone citrate on dyskinesia-like symptoms in PD-LID rat model. It is filed as in vivo. Particulars: oral 10, 30, or 100 mg/kg as citrate concentration, levodopa 5 minutes later. As to the method: The behavior was observed and evaluated using the same method as Example 2. […] After 5 minutes, a levodopa containing solution was intraperitoneally administered, and the behavior was observed and evaluated. The results in the drawings are indicated in terms of mean value±standard error. The test results were statistically analyzed by comparison with the solvent administration group by Steel test using the total AIMs score in 3 hours and total AIMs score in 100 to 180 minutes as parameters. * indicates p<0.05, meaning that there is a significant difference. The dosage was described as a numerical value converted in terms of tandospirone free form.

For data set [6] the test system is unchanged. The data set can be described thus: Tandospirone metabolite 1-PP on dyskinesia-like symptoms in PD-LID rat model. The format is in vivo. Conditions: subcutaneous 10 or 30 mg/kg. As to the method: The behavior was observed and evaluated using the same method in Example 2. 1-PP dihydrochloride (Tokyo Chemical Industry) was dissolved in saline and subcutaneously administered to rats. After 5 minutes, a levodopa containing solution was intraperitoneally administered to observe and evaluate the behavior. The results in the drawings are indicated in terms of mean value±standard error. The test results were statistically analyzed by comparison with the solvent administration group by Steel test by using the total AIMs score in 3 hours and total AIMs score in 100 to 180 minutes as parameters.

The mark [7] stands for this setting: oral 30 mg/kg and 100 mg/kg as citrate.

These results are taken from patent publication US11559525B2, “Therapeutic drug for dyskinesia” (Sumitomo Pharma Co., Ltd., priority 2019, dated 2023).

Where a name gives a salt, the structure may show the parent alone.

With tandospirone citrate, the “increase in total AIMs score associated with repeated administration of levodopa vs solvent” value in the data set with 6-OHDA-lesioned rats (continuous subcutaneous infusion 30 mg/mL (mean 0.41 mg/kg/hour) or 60 mg/mL (mean 0.83 mg/kg/hour), days 3-15) is listed as “suppressed the increase in total AIMs score”. Also, the “total AIMs score on the day after completion of administration (day 16) vs solvent” value in the data set with 6-OHDA-lesioned rats (continuous subcutaneous infusion 30 or 60 mg/mL, pump retrieved day 15) is listed as “significantly lower”. Besides, in data set [1] (day 0 of implanting the pump), the “mean value of plasma tandospirone concentrations (converted in terms of free form)” value was determined as 281 ng/mL. In addition, the “mean value of plasma tandospirone concentrations (converted in terms of free form)” value in data set [1] (day 13 of implanting the pump) amounted to 143 ng/mL. In addition, in data set [2], the “clear dyskinesia-like symptom (mean AIMs score of 2 or greater) at 120 to 140 minutes after levodopa administration” value is recorded as “clear dyskinesia-like symptom (mean AIMs score of 2 or greater) was observed” and the “total AIMs score in 100 to 180 minutes vs solvent” value is “significant increase”. In addition, the “dyskinesia-like symptoms (total AIMs score in 180 minutes) vs solvent” value in data set [3] (continuous subcutaneous infusion 60 mg/mL (mean 0.78 mg/kg/hour as citrate), day 0 of implanting the pump) is given as “Significant improvement”. Further, in data set [3] (continuous subcutaneous infusion 60 mg/mL citrate, day 13 of implanting the pump), the “dyskinesia-like symptoms (total AIMs score in 180 minutes) vs solvent” value is on record as “significant improvement”. In addition, in data set [4] (setting [7]), the “ON time without dyskinesia for 180 minutes vs solvent” value is “increase in ON time without dyskinesia” and the “total ON score after 180 minutes of levodopa administration vs solvent” value was “increase in the total ON score”. Further, in data set [4] (oral 100 mg/kg as citrate), the “ON-time without dyskinesia for 180 minutes (Locomotive behavior ≥1, and AIMs score=0)” value was “significant prolongation”; the “total ON score” value is recorded as “increase in the total ON score”. Besides, the “total AIMs score vs solvent” value in data set [5] is recorded as “significant change in the total AIMs score was not observed”.

With `c1cnc(N2CCNCC2)nc1` [1-PP dihydrochloride, 1-(2-Pyrimidyl) piperazine], in data set [6], the “clear dyskinesia-like symptom (mean AIMs score of 2 or greater) at 120 to 140 minutes after levodopa” value is “clear dyskinesia-like symptom (mean AIMs score of 2 or greater) was observed” and the “total AIMs score in 100 to 180 minutes vs solvent” value is recorded as “increasing trend in the total AIMs score, albeit not significant”. In addition, the “total AIMs score vs solvent” value in data set [6] (levodopa 5 minutes later) is “significant change in the total AIMs score was not found”.
